In assay [1] the target is T1, Lp(a) assembly (recombinant human 16K apo(a) and apoB) (Homo sapiens, UniProt P08519).
T1 construct: containing one KIV type 1, six KIV type 2 repeats, one each of KIV types 3–10 and one KV; expressed in transfected cells; host or cells: Conditioned medium of HEK293 (CRL-1573) stably expressing 16K apo(a), combined with conditioned medium of wild-type HepG2 (HB-8065) for endogenous apoB
Put plainly: In vitro Lp(a) assembly assay. In kind it is biochemical.
Method: HepG2 cells (HB-8065, ATCC) were cultured in Dulbecco’s modified Eagle’s medium, supplemented with 10% fetal bovine serum, 20 mM 4-(2-hydroxyethyl)-1-piperazineethanesulfonic acid (HEPES) and 100 U ml^−1 penicillin–streptomycin. apoB-conditioned media were collected after 24 h of culture at 37 °C and 5% CO2 from confluent wild-type HepG2 cells that endogenously express and secrete apoB. Apo(a)-conditioned media were collected after 24 h of culture at 37 °C and 5% CO2 from HEK293 cells (CRL-1573, ATCC) that stably express and secrete recombinant human 16K apo(a) protein containing one KIV type 1, six KIV type 2 repeats, one each of KIV types 3–10 and one KV.
The assembly assay was conducted in 96-well polypropylene plates by combining HepG2 and apo(a)-HEK293-conditioned media in the presence of a range of compound concentrations. After a two-hour incubation period at 37 °C, the reaction was stopped by the addition of 6-aminocaproic acid. Lp(a) was detected using a sandwich enzyme-linked immunosorbent assay (ELISA), with a polyclonal goat anti-apo(a) capture antibody (Abcam ab31675) and a biotin-conjugated, polyclonal goat anti-apoB detection antibody (Abcam ab20898). In brief, ELISA plates were coated with 100 μl of the capture antibody at a 1:12,500 dilution (around 4 μg ml^−1) into HEPES-buffered saline (HBS), incubated overnight at 4 °C, washed and blocked by the addition of 200 μl of 1% casein. After removal of the blocking buffer, 20 μl of each of the assembly reactions or of a dilution series of purified human Lp(a) (Athens Research, 12-16-121601), diluted 1:5 into HBS supplemented with 0.5% casein, were added to the ELISA plate. […] Absorbance at 450 nm was measured on an Envision plate reader.
The concentration of Lp(a) formed in each test condition was determined on the basis of the standard curve constructed from the purified human Lp(a) used as a reference standard, and was normalized to high (buffer) and low (no apoB) controls. […] Data were analysed in GraphPad Prism v.9.5.1.

For assay [2], the target named is T2, apo(a) KIV5–8 (Homo sapiens, UniProt P08519).
T2 construct: made in house
T2 sequence (P08519 1043-1470 limits assumed): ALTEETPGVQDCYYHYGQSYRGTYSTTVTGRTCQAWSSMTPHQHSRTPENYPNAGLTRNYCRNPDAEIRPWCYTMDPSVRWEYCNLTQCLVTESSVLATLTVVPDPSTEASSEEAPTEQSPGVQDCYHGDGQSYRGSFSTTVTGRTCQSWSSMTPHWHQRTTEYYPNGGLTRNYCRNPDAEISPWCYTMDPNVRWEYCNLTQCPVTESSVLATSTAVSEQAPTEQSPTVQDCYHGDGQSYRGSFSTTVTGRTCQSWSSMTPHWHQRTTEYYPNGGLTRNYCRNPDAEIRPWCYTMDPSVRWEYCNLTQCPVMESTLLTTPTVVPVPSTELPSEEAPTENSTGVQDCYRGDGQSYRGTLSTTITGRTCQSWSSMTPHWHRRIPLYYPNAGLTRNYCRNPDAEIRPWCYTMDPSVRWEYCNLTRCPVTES
Put plainly: ITC binding to apo(a) KIV5–8. The method, then:
(§1) The nucleotide sequence encoding the human LPA gene (NP_005568.2) was inserted into a mammalian expression vector containing a cytomegalovirus promoter. Protein expression was performed by transient transfection of human embryonic kidney 293 (HEK293) cells cultured in serum-free medium. The culture medium was collected five days after transfection and human apo(a) protein was purified using L-lysine affinity chromatography. Nucleotide sequences encoding various KIV domains of human apo(a) and human and rat plasminogen were inserted into a pET21a Escherichia coli expression vector. Bacterial BL21(DE3) was used as the expression host, and the induction of protein expression was performed in 2× TY medium with 1 mM isopropyl β-D-1-thiogalactopyranoside at 37 °C for 5 h. Cells were collected and stored at –80 °C for subsequent protein purification and refolding. […] All protein concentrations were determined by A280.
Experiments were performed on a MicroCal Auto-iTC200 titration calorimeter (Malvern Panalytical), with a cell volume of 200 μl and a 40-μl microsyringe. […] The microsyringe was loaded with a solution of the respective compounds, with the concentration measured by quantitative nuclear magnetic resonance, and was inserted into the calorimetric cell prefilled with the respective recombinant proteins of known concentration in ITC buffer. […]

Assay [3] concerns the target T3, full-length recombinant 16K apo(a) (Homo sapiens, UniProt P08519).
T3 construct: Full-length apo(a) and various shorter constructs were prepared as described; made in house
Put plainly: Radioligand binding to full-length recombinant 16K apo(a). The method, then:
(§2) The nucleotide sequence encoding the human LPA gene (NP_005568.2) was inserted into a mammalian expression vector containing a cytomegalovirus promoter. Protein expression was performed by transient transfection of human embryonic kidney 293 (HEK293) cells cultured in serum-free medium. The culture medium was collected five days after transfection and human apo(a) protein was purified using L-lysine affinity chromatography. Nucleotide sequences encoding various KIV domains of human apo(a) and human and rat plasminogen were inserted into a pET21a Escherichia coli expression vector. Bacterial BL21(DE3) was used as the expression host, and the induction of protein expression was performed in 2× TY medium with 1 mM isopropyl β-D-1-thiogalactopyranoside at 37 °C for 5 h. Cells were collected and stored at –80 °C for subsequent protein purification and refolding. The frozen cell pellets were lysed and inclusion bodies were purified. The protein refolding was performed using the rapid-dilution method, and the refolded proteins were further purified by size-exclusion chromatography. All protein concentrations were determined by A280.
(§3) Full-length apo(a) and various shorter constructs were prepared as described. Human and rat plasminogen, purified from plasma by affinity chromatography, were obtained from Innovative Research (IHGPG and IRPLG, respectively).
(§4) All reagents used in the binding assays were prepared in assay buffer containing 50 mM Tris-HCl, pH 7.4, and 0.1% bovine serum albumin. All apo(a) proteins were diluted to a final concentration of 200 pM. Human and rat plasminogen were diluted into assay buffer, and 250 ng was added to each well.
Saturation binding studies of ^3H-LSN3441732 or ^3H-LSN3374443 were conducted by adding to each well of a white-wall, clear-bottom 96-well plate, 50 µl each of (1) dimethyl sulfoxide (DMSO) or a saturating concentration (40 μM) of an unlabelled ligand; (2) protein diluted into assay buffer; (3) resuspended wheat germ agglutinin polyvinyltoluene scintillation proximity assay beads (2 mg ml^−1); and (4) a dilution series of radioligand. Plates were incubated for one to two hours at room temperature and counted on a Wallac Trilux 1450 liquid scintillation counter. Non-specific binding, defined as binding in the presence of the unlabelled ligand, was subtracted to determine specific binding. Specific binding was plotted as a function of ligand concentration, and a single-site binding equation of the form y = Bmax × x/(Kd + x) was fitted to the data, where Bmax is the maximum saturable binding and Kd is the equilibrium dissociation constant.

Assay [4] concerns the target T2, apo(a) KIV5–8. Put plainly: Radioligand binding to apo(a) KIV5–8. The note with it: Experiment 1, read-out: Kd (nM) KIV5–8 Exp 1. The method, then:
as §1, with “h.” for “h. Cells were collected and stored at –80 °C for subsequent protein purification and refolding.”, “A280. […]” for “A280.”
(§5) Saturation binding studies of ^3H-LSN3441732 or ^3H-LSN3374443 were conducted by adding to each well of a white-wall, clear-bottom 96-well plate, 50 µl each of (1) dimethyl sulfoxide (DMSO) or a saturating concentration (40 μM) of an unlabelled ligand; (2) protein diluted into assay buffer; (3) resuspended wheat germ agglutinin polyvinyltoluene scintillation proximity assay beads (2 mg ml^−1); and (4) a dilution series of radioligand. Plates were incubated for one to two hours at room temperature and counted on a Wallac Trilux 1450 liquid scintillation counter. […]

For assay [5], the target named is T4, apo(a) KIV7 (Homo sapiens, UniProt P08519).
T4 construct: made in house
Put plainly: Radioligand binding to apo(a) KIV7. The method, then:
as §2, §3
(§6) All reagents used in the binding assays were prepared in assay buffer containing 50 mM Tris-HCl, pH 7.4, and 0.1% bovine serum albumin. […]
as §5

The target of a further assay is T5, apo(a) KIV8 (Homo sapiens, UniProt P08519).
T5 construct: made in house
T5 sequence (P08519 1387-1465 limits assumed): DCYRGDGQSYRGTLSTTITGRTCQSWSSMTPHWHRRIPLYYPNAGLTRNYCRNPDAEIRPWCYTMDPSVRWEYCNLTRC
Put plainly: Radioligand binding to apo(a) KIV8. As for the experimental part:
as §1, with “h.” for “h. Cells were collected and stored at –80 °C for subsequent protein purification and refolding.”, “A280. […]” for “A280.”
as §5

The next assay concerns rat plasminogen. Put plainly: Saturation radioligand binding to rat plasminogen. The method, then: as §3, §4
as §5, with “counter. Non-specific binding, defined as binding in the presence of the unlabelled ligand, was subtracted to determine specific binding.” for “counter.”

Another assay addresses T6, apo(a) KIV7–8 (Homo sapiens, UniProt P08519).
T6 construct: purified recombinant apo(a) KIV7–8 protein; made in house
T6 sequence (P08519 1263-1470 limits assumed): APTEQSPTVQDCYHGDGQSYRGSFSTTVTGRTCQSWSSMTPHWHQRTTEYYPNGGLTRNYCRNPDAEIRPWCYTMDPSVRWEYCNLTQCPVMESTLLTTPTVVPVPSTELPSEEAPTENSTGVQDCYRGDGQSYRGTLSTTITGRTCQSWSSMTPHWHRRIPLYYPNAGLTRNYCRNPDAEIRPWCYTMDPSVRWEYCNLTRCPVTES
Put plainly: Radioligand binding to apo(a) KIV7–8. The method, then: as §2, §3, §6, §5

The next assay has as its system Lp(a). The note with it: humans; cited from earlier work.
For assay [6], the target named is apo(a) KIV7. Also noted: method as in PMID 11802713. The note with it: binding to lysine-binding domain of apo(a) KIV7; cited from earlier work.
Another assay concerns Lp(a) assembly. Also noted: method as in PMID 11802713. Particulars: cited from earlier work.

Each structure is given as a SMILES string. Read-outs that look alike come from different tables or passages of the source. A value given as a limit tells only on which side of the number the result lay.

T3 sequence (P08519 20-2040): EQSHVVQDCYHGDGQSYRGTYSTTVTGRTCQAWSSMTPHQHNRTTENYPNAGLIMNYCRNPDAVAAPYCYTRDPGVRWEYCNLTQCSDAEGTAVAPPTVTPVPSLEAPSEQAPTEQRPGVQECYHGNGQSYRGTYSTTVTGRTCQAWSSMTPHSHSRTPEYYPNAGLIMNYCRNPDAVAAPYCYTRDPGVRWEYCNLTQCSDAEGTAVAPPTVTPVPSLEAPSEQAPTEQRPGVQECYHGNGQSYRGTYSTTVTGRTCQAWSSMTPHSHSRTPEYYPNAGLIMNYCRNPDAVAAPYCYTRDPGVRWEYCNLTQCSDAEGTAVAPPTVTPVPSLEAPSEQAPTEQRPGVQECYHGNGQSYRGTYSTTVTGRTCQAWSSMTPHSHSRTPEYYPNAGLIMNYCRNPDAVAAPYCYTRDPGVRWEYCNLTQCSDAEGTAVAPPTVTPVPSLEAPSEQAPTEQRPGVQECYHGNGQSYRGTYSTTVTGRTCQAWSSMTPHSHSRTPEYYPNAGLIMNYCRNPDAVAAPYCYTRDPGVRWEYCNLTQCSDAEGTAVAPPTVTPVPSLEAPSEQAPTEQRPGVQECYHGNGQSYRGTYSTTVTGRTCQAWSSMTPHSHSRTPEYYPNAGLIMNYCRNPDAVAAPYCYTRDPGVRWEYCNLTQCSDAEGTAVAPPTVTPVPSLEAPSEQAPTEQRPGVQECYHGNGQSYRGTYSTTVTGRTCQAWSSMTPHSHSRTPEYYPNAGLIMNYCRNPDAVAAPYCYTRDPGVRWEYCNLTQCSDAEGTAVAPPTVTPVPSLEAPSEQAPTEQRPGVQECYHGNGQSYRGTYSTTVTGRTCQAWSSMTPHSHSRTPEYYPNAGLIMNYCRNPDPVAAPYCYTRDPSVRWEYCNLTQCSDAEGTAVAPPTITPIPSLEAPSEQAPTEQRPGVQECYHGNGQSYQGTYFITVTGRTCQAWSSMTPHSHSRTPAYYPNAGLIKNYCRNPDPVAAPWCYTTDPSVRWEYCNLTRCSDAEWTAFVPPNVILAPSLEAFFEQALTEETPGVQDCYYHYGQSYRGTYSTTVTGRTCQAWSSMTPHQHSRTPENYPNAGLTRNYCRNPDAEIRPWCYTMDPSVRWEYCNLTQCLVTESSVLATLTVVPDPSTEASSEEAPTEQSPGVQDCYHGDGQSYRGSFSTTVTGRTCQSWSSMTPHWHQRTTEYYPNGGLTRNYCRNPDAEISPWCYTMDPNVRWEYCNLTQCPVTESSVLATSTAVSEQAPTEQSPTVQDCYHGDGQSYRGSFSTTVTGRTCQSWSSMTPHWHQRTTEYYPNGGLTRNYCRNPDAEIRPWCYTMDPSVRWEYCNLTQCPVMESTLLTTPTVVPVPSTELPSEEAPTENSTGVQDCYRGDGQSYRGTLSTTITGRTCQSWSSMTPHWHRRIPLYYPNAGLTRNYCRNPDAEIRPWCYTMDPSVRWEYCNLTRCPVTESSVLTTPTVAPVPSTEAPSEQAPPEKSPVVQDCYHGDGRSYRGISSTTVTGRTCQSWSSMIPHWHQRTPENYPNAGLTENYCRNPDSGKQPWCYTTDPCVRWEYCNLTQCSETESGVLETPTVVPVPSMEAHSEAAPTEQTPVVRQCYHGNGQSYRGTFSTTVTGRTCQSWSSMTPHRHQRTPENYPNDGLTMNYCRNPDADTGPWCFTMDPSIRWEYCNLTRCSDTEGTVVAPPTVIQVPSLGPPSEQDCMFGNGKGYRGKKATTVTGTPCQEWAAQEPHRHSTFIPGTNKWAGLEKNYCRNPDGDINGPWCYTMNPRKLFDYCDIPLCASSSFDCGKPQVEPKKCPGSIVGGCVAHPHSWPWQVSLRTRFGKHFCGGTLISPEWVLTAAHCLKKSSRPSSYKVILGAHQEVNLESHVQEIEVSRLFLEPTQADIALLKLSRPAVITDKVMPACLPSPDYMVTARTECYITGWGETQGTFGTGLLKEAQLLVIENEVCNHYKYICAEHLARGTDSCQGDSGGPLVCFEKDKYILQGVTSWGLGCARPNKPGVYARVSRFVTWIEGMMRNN
T1 sequence (P08519 20-2040): as above

A word on the IC50: it is the midpoint of a concentration-inhibition curve. What is called Kd is a measure of binding affinity in units of concentration. Turning to `COc1cccc(N2CCN(c3cccc(C[C@H](C(=O)O)[C@H]4CCNC4)c3)C2=O)c1` [LSN3374443], in assay [1], the IC50 amounted to 36 nM. The equilibrium dissociation constant (Kd) on apo(a) KIV5–8 [2] is less than 15 nM.

Turning to `O=C(Nc1cccc(C[C@H](C(=O)O)[C@H]2CCNC2)c1)Nc1cccc(C[C@H](C(=O)O)[C@H]2CCNC2)c1` [^3H-LSN3441732], the “Bmax, full-length apo(a)” value in assay [3] (direct radioligand binding) is listed as 4.9 fmol ng^−1 apo(a). Also, the equilibrium dissociation constant (Kd) in assay [3] (direct radioligand binding, mean) came to 0.05 nM; on apo(a) KIV5–8 [4], 0.33 nM; on apo(a) KIV7 [5] (direct radioligand binding, read-out: Kd, single KIV7) it was 2.8 nM; on apo(a) KIV7 [5] (radioligand binding, Experiment 1, read-out: Kd (nM) KIV7 Exp 1), 3 nM; on apo(a) KIV7 [5] (radioligand binding, Experiment 2, read-out: Kd (nM) KIV7 Exp 2), 2.7 nM; on apo(a) KIV8 (direct radioligand binding, read-out: Kd, single KIV8), 2 nM. Moreover, the equilibrium dissociation constant (Kd) on apo(a) KIV8 (radioligand binding, Experiment 1, read-out: Kd (nM) KIV8 Exp 1) stood at 3 nM; at apo(a) KIV7–8 (direct radioligand binding, read-out: Kd, KIV7–8), 0.21 nM; on apo(a) KIV7–8 (radioligand binding, Experiment 1, read-out: Kd (nM) KIV7–8 Exp 1) it was 0.32 nM; at apo(a) KIV7–8 (radioligand binding, Experiment 2, read-out: Kd (nM) KIV7–8 Exp 2), 0.1 nM. In assay [3] (from Bmax), the “ligands per molecule of apo(a)” value is recorded as “one”. Also, in [3] (full-length apo(a)), the “fold affinity increase versus ^3H-LSN3374443” value came to 50 fold. Also, in the assay on rat plasminogen, the “fold higher affinity for rat plasminogen than for human plasminogen” value was found to be 50 fold.

With `NC[C@H]1CC[C@H](C(=O)O)CC1` [tranexamic acid], the “levels of Lp(a) in a small clinical study” value with Lp(a) is “reduce the levels of Lp(a)”. Besides, on apo(a) KIV7 [6], the Kd is 63000 nM. Moreover, the “in vitro assembly of Lp(a)” value in the assay with Lp(a) assembly is recorded as “inhibited”.

For the molecule `NCCCCCC(=O)O` [ε-aminocaproic acid], on apo(a) KIV7 [6], the Kd is 230000 nM. Also, the “in vitro assembly of Lp(a)” value in the assay with Lp(a) assembly is given as “inhibited”.

Values taken from publication PMC11111404, “Discovery of potent small-molecule inhibitors of lipoprotein(a) formation” (Nature, 2024).
